Results on seven substances are retold here after patent publication US20060063198A1, “Diagnostic marker” (priority 2004, published 2006).

No end group written: not given here. *: point of attachment. For = O=C*

For one data set, the system named is human neutrophils. Description: Neutrophil chemotaxis in a modified Boyden chamber assay. The format is cell-based. Conditions: synthetic peptides, fMLP as comparator. As for the experimental part: Serum and plasma samples were collected from six female healthy volunteers aged 20-29, and ten ACS patients. Clinical diagnosis of the ten ACS patients indicated one unstable angina patient and 9 patients with acute myocardial infarction (AMI). The unstable angina patient arrived to the Emergency Department 30.5 hours after symptoms onset. Seven of the nine AMI patients presented to the Emergency Department within 1.5-3.5 hours after onset of chest pain. The other two AMI patients arrived 10 hours and 24 hours after symptoms onset. Blood samples were collected upon arrival of the patient, centrifuged and stored at −70° C. for up to 21 days. Serum and plasma samples were tested for neutrophil chemotactic activity using a modified Boyden chamber technique and human neutrophils as indicator cells (see, for example, Elgebaly, S. A., et al. J. Mol. Cell. Cardiol. 21:585-593, 1989; and Elgebaly, S. A., et al. Am. J. Pathol. 137:1233-1241, 1990, each of which is incorporated by reference in its entirety).
Samples were also fractionated using high performance liquid chromatography (HPLC) and a size exclusion column (1-300 kDa). The 5 kDa and lower molecular weight fractions were collected and assayed for neutrophil chemotactic activity. The standard synthetic chemoattractant fMet-Leu-Phe (f-MLP) was used as the positive control for 100% chemotactic response. Hank's Balanced Salt Solution (HBSS) was the negative control for random migration. Neutrophil migration was reported as chemotactic index of counted cells trapped within 10-micron membrane layer. The average of three readings were calculated for each filter. [formula]
(§1) A synthetic peptide having the sequence: N-formyl-[…] Synthetic peptides of sequence: MIINHNLAAINSHR (i.e., unmodified peptide 3) and of sequence: […]

In the next data set the test system is neutrophils. Description: Chemotactic activity retained after overnight refrigeration. Type of data set: cell-based. Conditions: unlike fMLP.
Text: as §1

In the case of N-formyl-MENHK [N-formyl-7], the chemotaxis of neutrophils entry with human neutrophils is given as “promote chemotaxis to a lesser degree than fMLP”.

For “N-formyl-MIINHNLAAINSHRSPGADGNGGEAMPGGGK (For-MIINHNLAAINSHRSPGADGNGGEAMPGGGK) [N-formyl-3+9+K]”, the “chemotactic activity when refrigerated overnight” value (shortened to “chemotactic activity”) in the data set with neutrophils is “retained chemotactic activity”. The chemotaxis of neutrophils result in the data set with human neutrophils is “promoted strong chemotaxis”. For SPGADGNGGEAMPGGG [sequence 9], the chemotaxis of neutrophils result in the data set with human neutrophils was “no chemotactic activity”. As for MIINHNLAAINSHRSPGADGNGGEAMPGGG [3+9], in the data set on neutrophils, the “chemotactic activity” value is reported as “retained chemotactic activity”. Also, in the data set on human neutrophils, the chemotaxis of neutrophils result is reported as “promoted chemotaxis to a lesser degree”.

Turning to MIINHNLAAINSHR [sequence 3], in the data set on human neutrophils, the chemotaxis of neutrophils entry was “promoted chemotaxis to a lesser degree”. Regarding “N-formyl-MNTRAMNDASGR (For-MNTRAMNDASGR) [N-formyl-5]”, in the data set with human neutrophils, the chemotaxis of neutrophils entry is reported as “promote chemotaxis to a lesser degree than fMLP”. With “N-formyl-MIINHNLAAINSHR (For-MIINHNLAAINSHR) [N-formyl-3]”, in the data set on neutrophils, the “chemotactic activity” value was “retained chemotactic activity”. In addition, the chemotaxis of neutrophils result with human neutrophils is given as “promoted strong chemotaxis”.
